From patent publication US9632085B2, “Rapid antibiotic susceptibility testing” (PRESIDENT AND FELLOWS OF HARVARD COLLEGE, priority 2012, dated 2017)

Assays:
DH5alpha E. coli = test: FcMBL bead captured bacteria cultured 2 hours in LB with or without antibiotic, quantified on LB Agar plates; type: cell-based; conditions: 2 hours at 37° C. in LB; Carbenicillin 100 μg/ml (FIG. 3 legend); range of titers down to 300 colonies
Description: In preliminary studies, the inventors tested the discrimination of the antibiotic susceptibility assay described herein with a range of titers of DH5alpha E. coli (corresponding to blood titers from a range of sepsis patients from septic shock to SIRS) FcMBL bead captured bacteria were cultured for 2 hours at 37° C. with vigorous agitation/aeration in Luria Broth (LB) or in LB supplemented with the bacteriocidal antibiotic Carbenicillin or the bacteriostatic antibiotic Spectomycin. The bacteria were quantified on LB Agar plates. In all cases, the inventors were able to discriminate between the growth in LB compared with growth in LB with bacteriocidal or bacteriostatic antibiotic (see FIG. 3).

E. coli = test: Antibiotic susceptibility from single bacterium: FcMBL bead capture, gel matrix, resazurin/Sytox Green 11 live-dead imaging; type: cell-based; conditions: kanamycin at 50 μg/ml in BHI; captured E. coli grown in gel matrix; time after antibiotic addition
Description: Bacteria in a biological sample were captured by FcMBL coated magnetic beads. The bead/bacteria were washed and added to a microscope compatible surface (for example, plasma treated coverslip or glass bottom microplates) and immobilized by an underlying magnet. A low melt agarose gel 37° C. containing growth media (BHI), resazurin (a stain for labeling live cells), and Sytox Green 11 (a stain for labeling dead cells) was overlaid on the bacteria-bound FcMBL magnetic beads to immobilize and/or secure the bacteria in place. In some embodiments where the bead/bacteria were spotted on glass bottom microplates, the wells were filled with growth medium containing fluorescent stains for live and/or dead cells. The captured bacteria were incubated on the slide or in the wells for about 1-2 hours at about 36-37° C. and imaged by microscopy, e.g., fluorescent microscopy. Live cells could be identified by resorufin (metabolized resazurin) stain and coordinates of the live cells could be determined and stored for iterative imaging. […] Bacteria can be observed for, for example, growth in the presence of the antibiotics (to determine the resistance of the bacteria to the particular antibiotics), cell death determined by fluorescent stain for dead cells (to determine bactericidal activity), and/or inhibition of growth (to determine bacteriostatic activity). […]

In the case of `CC1(C)S[C@@H]2[C@H](NC(=O)C(C(=O)O)c3ccccc3)C(=O)N2[C@H]1C(=O)O` (stereo partly drawn) [Carbenicillin], the “bacterial counts compared with LB and LB with bacteriostatic antibiotic” value (DH5alpha E. coli) is reported as “lowest of the three conditions tested”.

For `NC[C@H]1O[C@H](O[C@H]2[C@H](O)[C@@H](O[C@H]3O[C@H](CO)[C@@H](O)[C@H](N)[C@H]3O)[C@H](N)C[C@@H]2N)[C@H](O)[C@@H](O)[C@@H]1O` [Kanamycin], the “color change from red-resorufin to green Sytox green 11 (cell death) observed for some of the bacteria” value (E. coli) was at most 5 min and the “complete effect for all cells in the tracked fields of vision” value (E. coli) was 30 to 40 min.
